Target: T1, Recombinant human HSD17B13 enzyme (Homo sapiens, UniProt Q7Z5P4)
T1 sequence (Q7Z5P4 20-300): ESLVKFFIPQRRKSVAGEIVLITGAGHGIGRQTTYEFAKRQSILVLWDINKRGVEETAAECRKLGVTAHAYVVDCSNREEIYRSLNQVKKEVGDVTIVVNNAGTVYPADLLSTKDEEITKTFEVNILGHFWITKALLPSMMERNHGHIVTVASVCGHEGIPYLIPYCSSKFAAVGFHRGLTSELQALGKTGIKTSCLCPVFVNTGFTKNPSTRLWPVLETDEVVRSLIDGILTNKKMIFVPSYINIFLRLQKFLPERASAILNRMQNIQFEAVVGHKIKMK
Experiment: HSD17b13 NAD(P)H-Glo biochemical assay
Conditions: 50 μM estradiol, 1 mM NAD+, 37° C. for 3 hours; read-out: HSD17β13 IC50
Experimental: Example B-1: HSD17b13 NAD (P) H-Glo Biochemical Assay
Recombinant human HSD17B13 enzyme. Substrate: estradiol (Sigma β-Estradiol E8875), 100 mM in DMSO. Cofactor: NAD+ Grade I free acid (Sigma 10127965001), 20 mM in H2O. Assay buffer final concentration: 20 mM Tris pH7.4 with 0.002% Tween-20 and 0.02% BSA. Assay performed in 384 well solid bottom plate (Corning 3570). Enzymatic activity detected by NAD (P) H-Glo™ Detection System (Promega G9062).
Inhibitor compounds were serially diluted in DMSO and then further diluted in assay buffer to a 10× concentration consisting of 1% DMSO.
HSD17b13 enzyme was diluted in 1× assay buffer to the desired enzyme concentration based on the specific activity of the enzyme lot. 20 μL of diluted enzyme was added to each well along with 2.5 μL of 10× inhibitor solution. Assay plate was incubated at RT for 20 minutes, and then 2.5 μL of a 10× substrate/cofactor mix was added to each well for a final concentration of 50 μM estradiol and 1 mM NAD+. Assay plate was incubated at 37° C. for 3 hours. NAD (P) H-Glo™ Detection System reagents were prepared according to manufacturer's specifications, and 25 μL was added to each well. After incubating for 1 hour at RT, luminescence was measured.

| Structure (SMILES) | IC50 [nM] |
| --- | --- |
| Oc1c(F)c(-c2n[nH]c3nc(N4CCOC[C@H]4Cc4ccccc4)ncc23)cc(C(F)(F)F)c1F [Compound 5.20, (R)-3-(6-(3-Benzylmorpholino)-1H-pyrazolo[3,4-d]pyrimidin-3-yl)-2,6-difluoro-5-(trifluoromethyl)phenol] | ≤ 100 |
| Cn1nc(-c2cc(C(F)(F)F)c(F)c(O)c2F)c2cnc(N3CCN(C(=O)C(F)(F)F)CC3CC3CC3)nc21 (stereo not shown) [Compound 11.14, 1-(3-(Cyclopropylmethyl)-4-(3-(2,4-difluoro-3-hydroxy-5-(trifluoromethyl)phenyl)-1-methyl-1H-pyrazolo[3,4-d]pyrimidin-6-yl)piperazin-1-yl)-2,2,2-trifluoroethan-1-one] | ≤ 100 |
| CN1CCN(c2ncc3c(-c4cc(C(F)(F)F)c(F)c(O)c4F)nn(C)c3n2)CC1Cc1ccccc1 (stereo not shown) [Compound 5.07, 3-(6-(3-Benzyl-4-methylpiperazin-1-yl)-1-methyl-1H-pyrazolo[3,4-d]pyrimidin-3-yl)-2,6-difluoro-5-(trifluoromethyl)phenol] | ≤ 100 |
| Cn1nc(-c2cc(C(F)(F)F)c(F)c(O)c2F)c2cnc(N3CCOCC3Cc3ccncc3)nc21 (stereo not shown) [Compound 15.08, 2,6-Difluoro-3-(1-methyl-6-(3-(pyridin-4-ylmethyl)morpholino)-1H-pyrazolo[3,4-d]pyrimidin-3-yl)-5-(trifluoromethyl)phenol] | ≤ 100 |
| CCn1nc(-c2cc(C(F)(F)F)c(F)c(O)c2F)c2cnc(N3CCN(S(C)(=O)=O)C[C@H]3Cc3ccccc3)nc21 [Compound 11.22, (R)-3-(6-(2-Benzyl-4-(methylsulfonyl)piperazin-1-yl)-1-ethyl-1H-pyrazolo[3,4-d]pyrimidin-3-yl)-2,6-difluoro-5-(trifluoromethyl)phenol] | ≤ 100 |
| Cn1nc(-c2cc(C(F)(F)F)c(F)c(O)c2F)c2cnc(N3CCN(C(N)=O)CC3CC3CC3)nc21 (stereo not shown) [Compound 11.28, 3-(Cyclopropylmethyl)-4-(3-(2,4-difluoro-3-hydroxy-5-(trifluoromethyl)phenyl)-1-methyl-1H-pyrazolo[3,4-d]pyrimidin-6-yl)piperazine-1-carboxamide] | ≤ 100 |
| CC(C)CC1COCCN1c1ncc2c(-c3cc(C(F)(F)F)c(F)c(O)c3F)nn(C)c2n1 (stereo not shown) [Compound 5.35, 2,6-Difluoro-3-(6-(3-isobutylmorpholino)-1-methyl-1H-pyrazolo[3,4-d]pyrimidin-3-yl)-5-(trifluoromethyl)phenol] | ≤ 100 |
| CCN1CCN(c2ncc3c(n2)c(C)nn3-c2cc(C(F)(F)F)c(F)c(O)c2F)[C@H](Cc2ccccc2)C1 [Compound 2.32, (R)-3-(5-(2-Benzyl-4-ethylpiperazin-1-yl)-3-methyl-1H-pyrazolo[4,3-d]pyrimidin-1-yl)-2,6-difluoro-5-(trifluoromethyl)phenol] | ≤ 100 |
| Cc1nn(-c2cc(C(F)(F)F)c(F)c(O)c2F)c2cnc(N3CCOC(Cc4ccccc4)C3)cc12 (stereo not shown) [Compound 2.04, 3-(5-(2-Benzylmorpholino)-3-methyl-1H-pyrazolo[3,4-c]pyridin-1-yl)-2,6-difluoro-5-(trifluoromethyl)phenol] | ≤ 100 |
| Cc1nn(-c2cc(Cl)c(F)c(O)c2F)c2cnc(N3CCN(S(C)(=O)=O)C[C@H]3Cc3ccccc3)nc12 [Compound 2.35, (R)-3-(5-(2-Benzyl-4-(methylsulfonyl)piperazin-1-yl)-3-methyl-1H-pyrazolo[4,3-c]pyrimidin-1-yl)-5-chloro-2,6-difluorophenol] | ≤ 100 |
| Cn1nc(-c2cc(F)c(F)c(O)c2F)c2cnc(N3CCN(S(C)(=O)=O)C[C@H]3Cc3ccccc3)nc21 [Compound 11.09, (R)-3-(6-(2-Benzyl-4-(methylsulfonyl)piperazin-1-yl)-1-methyl-1H-pyrazolo[3,4-d]pyrimidin-3-yl)-2,5,6-trifluorophenol] | ≤ 100 |
| CC(=O)N1CCN(c2ncc3c(-c4cc(C(F)(F)F)c(F)c(O)c4F)nn(C)c3n2)C[C@@H]1Cc1ccccc1 [Compound 6.04, (S)-1-(2-Benzyl-4-(3-(2,4-difluoro-3-hydroxy-5-(trifluoromethyl)phenyl)-1-methyl-1H-pyrazolo[3,4-d]pyrimidin-6-yl)piperazin-1-yl)ethan-1-one] | ≤ 100 |
| CC(=O)N1CCN(c2ncc3c(-c4cc(C(F)(F)F)c(F)c(O)c4F)nn(C)c3n2)[C@H](Cc2ccccc2)C1 [Compound 6.02, (R)-1-(3-Benzyl-4-(3-(2,4-difluoro-3-hydroxy-5-(trifluoromethyl)phenyl)-1-methyl-1H-pyrazolo[3,4-d]pyrimidin-6-yl)piperazin-1-yl)ethan-1-one] | ≤ 100 |
| Cc1c(F)cc(-c2nn(C)c3nc(N4CCN(S(C)(=O)=O)C[C@H]4Cc4ccccc4)ncc23)c(F)c1O [Compound 11.20, (R)-3-(6-(2-Benzyl-4-(methylsulfonyl)piperazin-1-yl)-1-methyl-1H-pyrazolo[3,4-d]pyrimidin-3-yl)-2,5-difluoro-6-methylphenol] | ≤ 100 |
| Cn1nc(-c2cc(C(F)(F)F)c(F)c(O)c2F)c2cnc(N3CCO[C@@H](Cc4ccc(S(N)(=O)=O)cc4)C3)nc21 [Compound 12.08, (S)-4-((4-(3-(2,4-Difluoro-3-hydroxy-5-(trifluoromethyl)phenyl)-1-methyl-1H-pyrazolo[3,4-d]pyrimidin-6-yl)morpholin-2-y)methyl)benzenesulfonamide] | ≤ 100 |
| CS(=O)(=O)N1CCN(c2cc3c(N)nn(-c4cc(C(F)(F)F)c(F)c(O)c4F)c3cn2)[C@H](Cc2ccccc2)C1 [Compound 2.23, (R)-3-(3-Amino-5-(2-benzyl-4-(methylsulfonyl)piperazin-1-l)-1H-pyrazolo[3,4-c]pyridin-1-yl)-2,6-difluoro-5-(trifluoromethyl)phenol] | ≤ 100 |
| Cn1nc(-c2cc(C(F)(F)F)c(F)c(O)c2F)c2cnc(N3CCN(S(C)(=O)=O)C[C@H]3CC3CCCCC3)nc21 [Compound 15.02, (R)-3-(6-(2-(Cyclohexylmethyl)-4-(methylsulfonyl)piperazin-1-yl)-1-methyl-1H-pyrazolo[3,4-d]pyrimidin-3-yl)-2,6-difluoro-5-(trifluoromethyl)phenol] | ≤ 100 |
| Cn1nc(-c2cc(O)c(F)c(F)c2C#N)c2cnc(N3CCN(S(C)(=O)=O)C[C@H]3Cc3ccccc3)nc21 [Compound 11.15, (R)-6-(6-(2-Benzyl-4-(methylsulfonyl)piperazin-1-yl)-1-methyl-1H-pyrazolo[3,4-d]pyrimidin-3-yl)-2,3-difluoro-4-hydroxybenzonitrile] | ≤ 100 |
| Cn1nc(-c2cc(C(F)(F)F)c(F)c(O)c2F)c2cnc(N3CCOCC3Cc3ccccc3)nc21 (stereo not shown) [Compound 5.03, 3-(6-(3-Benzylmorpholino)-1-methyl-1H-pyrazolo[3,4-d]pyrimidin-3-yl)-2,6-difluoro-5-(trifluoromethyl)phenol] | ≤ 100 |
| Cn1nc(-c2cc(C(F)(F)F)c(F)c(O)c2F)c2cnc(N3CCOC[C@H]3CC3CCCCC3)nc21 (single isomer, unassigned) [Compound 15.04] | ≤ 100 |
| Cn1nc(-c2cc(C(F)(F)F)c(F)c(O)c2F)c2cnc(N3CCOC[C@H]3C(=O)N3CCCCC3)nc21 [Compound 11.26, (S)-(4-(3-(2,4-Difluoro-3-hydroxy-5-(trifluoromethyl)phenyl)-1-methyl-1H-pyrazolo[3,4-d]pyrimidin-6-yl)morpholin-3-yl)(piperidin-1-yl)methanone] | ≤ 100 |
| Cn1nc(-c2cc(C(F)(F)F)c(F)c(O)c2F)c2cnc(N3CCCCC3Cc3ccccn3)nc21 (stereo not shown) [Compound 5.11, 2,6-Difluoro-3-(1-methyl-6-(2-(pyridin-2-ylmethyl)piperidin-1-yl)-1H-pyrazolo[3,4-d]pyrimidin-3-yl)-5-(trifluoromethyl)phenol] | ≤ 100 |
| CC(=O)N1CCN(c2ncc3c(-c4cc(C(F)(F)F)c(F)c(O)c4F)nn(C)c3n2)C[C@H]1Cc1ccccc1 [Compound 6.05, (R)-1-(2-Benzyl-4-(3-(2,4-difluoro-3-hydroxy-5-(trifluoromethyl)phenyl)-1-methyl-1H-pyrazolo[3,4-d]pyrimidin-6-yl)piperazin-1-yl)ethan-1-one] | ≤ 100 |
| Cn1nc(-c2cc(C(F)(F)F)c(F)c(O)c2F)c2cnc(N3CCOC[C@H]3Cc3ccc(F)cc3)nc21 [Compound 5.23, (R)-2,6-Difluoro-3-(6-(3-(4-fluorobenzyl)morpholino)-1-methyl-1H-pyrazolo[3,4-d]pyrimidin-3-yl)-5-(trifluoromethyl)phenol] | ≤ 100 |
| CS(=O)(=O)N1CCN(c2ncc3c(cnn3-c3cc(C(F)(F)F)c(F)c(O)c3F)n2)[C@H](Cc2ccccc2)C1 [Compound 2.09, (R)-3-(5-(2-Benzyl-4-(methylsulfonyl)piperazin-1-yl)-1H-pyrazolo[4,3-d]pyrimidin-1-yl)-2,6-difluoro-5-(trifluoromethyl)phenol] | ≤ 100 |

Reference: patent US20240368127A1, “HSD17B13 INHIBITORS AND USES THEREOF” (FL2022-001, Inc., priority 2021, published 2024)
